Patent publication US12043602B2, “Fendiline derivatives” (The Board of Regents of the University of Texas System, priority 2019, dated 2024)
Where two headings read alike, the source gives them in different places.

How the values were obtained:
[1] = biological target: mGFP-K-RASG12V (Homo sapiens (Human), UniProt P01116, G12V); assay: K-Ras mislocalization assay (confocal microscopy, Manders coefficient); assay type: cell-based; parameters: key to Emax: Manders coefficient: fraction of mCherry-CAAX co-localizing with GFP-K-Ras; settings: MDCK cells; for Emax: maximal effect, Manders coefficient; for IC50: 48 h treatment, read-out: IC50 (μM), KRASG12V mislocalization
Summary of the method: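 Readout is the Manders coefficient: share of mCherry-CAAX overlapping mGFP-K-RASG12V in confocal images, proportional to K-Ras mislocalization. Stable MDCK co-expressing lines were exposed 48 h to various drug concentrations or 0.1% DMSO vehicle, then paraformaldehyde-fixed.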

[2] = test system: MDCK cells co-expressing GFP-K-RASG12V and mCherry-CAAX; assay: Cytotoxicity in mislocalization screen (death of all cells in well); settings: drug caused death of all cells in well at 30 μM

Row | EC50 ([1]; batch 4 compounds, 48 h, title calls it IC50, read-out: EC50) [µM] | Emax ([1]; 48 h) | IC50 [1] [µM] | Structure (SMILES) | Cytotoxic at 30 μM [2] | IC50 ([1]; listed as 20) [µM] | Emax ([1]; 48 h, listed as 20)
1 | 8.91 | 0.424 | – | COC(=O)[C@@H](c1ccccc1)N(CC=C(c1ccccc1)c1ccccc1)CC=C(c1ccccc1)c1ccccc1 [NY055101, methyl (R)-2-(bis(3,3-diphenylallyl)amino)-2-phenylacetate] | Yes | – | –
2 | – | 0.424 | – | COC(=O)[C@H](NCC=C(c1ccccc1)c1ccccc1)c1ccccc1 [NY055102, Methyl (R)-2-((3,3-diphenylallyl)amino)-2-phenylacetate] | No | – | –
3 | – | 0.452 | 0.553 | COc1ccc([C@@H](C)N(CC=C(c2ccccc2)c2ccccc2)C(=O)CN2CCCC2)cc1 [PW124, (R)-N-(3,3-diphenylallyl)-N-(1-(4-methoxyphenyl)ethyl)-2-(pyrrolidin-1-yl)acetamide] | Yes | – | –
4 | – | 0.412 | 2.19 | COc1ccc([C@@H](C)N(CC=C(c2ccccc2)c2ccccc2)C(=O)CN2CCC(O)CC2)cc1 [PW126, (R)-N-(3,3-diphenylallyl)-2-(4-hydroxypiperidin-1-yl)-N-(1-(4-methoxyphenyl)ethyl)acetamide] | Yes | – | –
5 | – | 0.572 | 4.8 | O=C(c1ccc(F)cc1)N(CC=C(c1ccccc1)c1ccccc1)CCN1CCCC1 [PW276, N-(3,3-diphenylallyl)-4-fluoro-N-(2-(pyrrolidin-1-yl)ethyl)benzamide] | Yes | – | –
6 | – | 0.592 | 3.97 | O=S(=O)(c1ccc(F)cc1)N(CC=C(c1ccccc1)c1ccccc1)CCN1CCCC1 [PW277, N-(3,3-diphenylallyl)-4-fluoro-N-(2-(pyrrolidin-1-yl)ethyl)benzenesulfonamide] | Yes | – | –
7 | – | 0.739 | 8.85 | Fc1ccc(CN(CC=C(c2ccccc2)c2ccccc2)CCN2CCCC2)cc1 [PW278, N-(4-fluorobenzyl)-3,3-diphenyl-N-(2-(pyrrolidin-1-yl)ethyl)prop-2-en-1-amine] | Yes | – | –
8 | – | 0.608 | 3.4 | O=C(Nc1ccc(F)cc1)N(CC=C(c1ccccc1)c1ccccc1)CCN1CCCC1 [PW279, 1-(3,3-diphenylallyl)-3-(4-fluorophenyl)-1-(2-(pyrrolidin-1-yl)ethyl)urea] | Yes | – | –
9 | – | 0.709 | 6.03 | O=C(OCc1ccccc1)N(CC=C(c1ccccc1)c1ccccc1)CCN1CCCC1 [PW280, benzyl (3,3-diphenylallyl)(2-(pyrrolidin-1-yl)ethyl)carbamate] | Yes | – | –
10 | – | 0.592 | 12.5 | Nc1nccnc1C(=O)N(CC=C(c1ccccc1)c1ccccc1)CCN1CCCC1 [PW282, 3-amino-N-(3,3-diphenylallyl)-N-(2-(pyrrolidin-1-yl)ethyl)pyrazine-2-carboxamide] | No | – | –
11 | – | 0.324 | – | O=C(c1cc(-c2ccc(Cl)cc2)on1)N(CC=C(c1ccccc1)c1ccccc1)CCN1CCCC1 [PW283, 5-(4-chlorophenyl)-N-(3,3-diphenylallyl)-N-(2-(pyrrolidin-1-yl)ethyl)isoxazole-3-carboxamide] | Yes | – | –
12 | – | 0.549 | – | O=C(/C=C/c1ccccc1)N(CC=C(c1ccccc1)c1ccccc1)CCN1CCCC1 [PW284, N-(3,3-diphenylallyl)-N-(2-(pyrrolidin-1-yl)ethyl)cinnamamide] | Yes | – | –
13 | – | 0.62 | 4.52 | O=C(c1cnc2ccccc2n1)N(CC=C(c1ccccc1)c1ccccc1)CCN1CCCC1 [PW285, N-(3,3-diphenylallyl)-N-(2-(pyrrolidin-1-yl)ethyl)quinoxaline-2-carboxamide] | Yes | – | –
14 | – | 0.801 | 6.63 | O=C(c1cc2ccccn2n1)N(CC=C(c1ccccc1)c1ccccc1)CCN1CCCC1 [PW286, N-(3,3-diphenylallyl)-N-(2-(pyrrolidin-1-yl)ethyl)pyrazolo[1,5-a]pyridine-2-carboxamide] | No | – | –
15 | – | 0.83 | 3.37 | C(CN(CCN1CCCC1)Cc1cc2cccnc2[nH]1)=C(c1ccccc1)c1ccccc1 [PW293, N-((1H-pyrrolo[2,3-b]pyridin-2-yl)methyl)-3,3-diphenyl-N-(2-(pyrrolidin-1-yl)ethyl)prop-2-en-1-amine] | Yes | – | –
16 | – | 0.801 | 2.82 | Brc1cccc(CN(CC=C(c2ccccc2)c2ccccc2)CCN2CCCC2)n1 [PW295, N-((6-bromopyridin-2-yl)methyl)-3,3-diphenyl-N-(2-(pyrrolidin-1-yl)ethyl)prop-2-en-1-amine] | Yes | – | –
17 | – | 0.685 | 2.27 | C[C@H](c1ccc(F)cc1)N(CC=C(c1ccccc1)c1ccccc1)CCn1ccc2cccnc21 [PW297, (R)-N-(2-(1H-pyrrolo[2,3-b]pyridin-1-yl)ethyl)-N-(1-(4-fluorophenyl)ethyl)-3,3-diphenylprop-2-en-1-amine] | No | – | –
18 | – | 0.696 | 0.654 | Cc1cc(C)n(CCN(CC=C(c2ccccc2)c2ccccc2)[C@H](C)c2ccc(F)cc2)n1 [PW299, (R)-N-(2-(3,5-dimethyl-1H-pyrazol-1-yl)ethyl)-N-(1-(4-fluorophenyl)ethyl)-3,3-diphenylprop-2-en-1-amine] | No | – | –
19 | – | 0.675 | 4.13 | C[C@H](c1ccc(F)cc1)N(CC=C(c1ccccc1)c1ccccc1)CCn1cc(CCO)nn1 [PW303, (R)-2-(1-(2-((3,3-diphenylallyl)(1-(4-fluorophenyl)ethyl)amino)ethyl)-1H-1,2,3-triazol-4-yl)ethan-1-ol] | Yes | – | –
20 | – | 0.794 | 2.77 | C[C@H](c1ccc(F)cc1)N(CC=C(c1ccccc1)c1ccccc1)CCn1cc(CO)nn1 [PW304, (R)-(1-(2-((3,3-diphenylallyl)(1-(4-fluorophenyl)ethyl)amino)ethyl)-1H-1,2,3-triazol-4-yl)methanol] | No | – | –
21 | – | 0.609 | 0.507 | C[C@H](c1ccc(F)cc1)N(CC=C(c1ccccc1)c1ccccc1)CCn1cc(CN)nn1 [PW305, (R)-N-(2-(4-(aminomethyl)-1H-1,2,3-triazol-1-yl)ethyl)-N-(1-(4-fluorophenyl)ethyl)-3,3-diphenylprop-2-en-1-amine] | Yes | – | –
22 | – | 0.666 | 3.19 | C[C@H](c1ccc(F)cc1)N(CC=C(c1ccccc1)c1ccccc1)CCn1cc(CN(C)C)nn1 [PW306, (R)-N-(2-(4-((dimethylamino)methyl)-1H-1,2,3-triazol-1-yl)ethyl)-N-(1-(4-fluorophenyl)ethyl)-3,3-diphenylprop-2-en-1-amine] | Yes | – | –

Row | Structure (SMILES) | EC50 ([1]; batch 4 compounds, 48 h, title calls it IC50, read-out: EC50) [µM] | Emax ([1]; 48 h) | IC50 [1] [µM] | Cytotoxic at 30 μM [2] | IC50 ([1]; listed as 20) [µM] | Emax ([1]; 48 h, listed as 20)
23 | COc1ccc([C@@H](C)N(CC=C(c2ccccc2)c2ccccc2)C(=O)CN2CCN(C)CC2)cc1 [PW125, (R)-N-(3,3-diphenylallyl)-N-(1-(4-methoxyphenyl)ethyl)-2-(4-methylpiperazin-1-yl)acetamide] | – | 0.514 | 7.09 | Yes | 7.1 | 0.51 ± 0.02
